Entries after “also recorded” stand apart in the source; their conditions may differ.
Tests used:
[1] = tested on: Porphyromonas Gingivalis and Prevotella Intermedia; assay: Lethal photosensitization of oral pathogens by methylene blue and red-filtered halogen light (colony count); type: cell-based; conditions: for Percent of Living Bacteria: mean of both species +/- SD
Method: Suitable stain dosages for providing lethal sensitization of oral pathogens are determined in vitro by the following procedure. An objective is to determine the minimum duration of light exposure and minimum agent dilution required to achieve at least a 50% reduction in bacteria counts. Experimental tests are performed on two common pathogens using a continuously working, high intensity, red filtered halogen lamp. Red light from the filtered halogen lamp is transmitted through a flexible light guide to radiate downwardly onto petri dishes containing samples of live bacteria of species Porphyromonas Gingivalis and Prevotella Intermedia using the protocols described below. Bacteria. Prevoltella Intermedia is isolated from patient sample material, identified in the laboratory using standard diagnostic test systems (Remel Inc., Lenexa, Kans., USA) and is maintained by twice-weekly subculture in thioglycollate medium (Becton Dickinson and Co, Sparks, Md., USA). P. gingivalis ATCC 33277 obtained from Remel Inc., is maintained by a twice-weekly subculture on CDC anaerobe blood agar (Becton Dickinson and Co, USA) and in thioglycollate medium (Becton Dickinson and Co, USA). Light Source. The source for light energy is a continuously working, high intensity halogen lamp having a built-in 250-Watt quartz halogen light source, model I-250 supplied by Medithon, New York, N.Y., USA. Such lights are customarily employed for ear, nose or throat procedures. The light is transmitted through a flexible light guide and filtered to maintain maximum energy output at wavelengths in the vicinity of about 650 nm using a broadband red filter (Edmund Optics Inc., Barrington, N.J., USA). The light output power density measured at 3 cm distance from the end of the light guide with filter is about 50 milliwatts/cm2. Photosensitizer. […] Lethal photosensitization of P. Intermedia. Petri dishes containing CDC anaerobe blood agar (Becton Dickinson and Co, USA) are inoculated with 0.5 ml of broth containing 5×10^5 CFU/ml and left closed at room temperature for about 10 minutes to let the broth penetrate the agar media. […] Only plates with concentrations of 0.01%, and 0.025% are used in the experiment with 20 min light exposure. Four plates are used for each experiment. […] The controls are covered to protect them from ambient light. […] A total of 108 subcultures is used for the experiment. Plates are incubated in anaerobic conditions in the jars using anaerobic pack kits (BBL GasPak Plus, Becton Dickinson and Co, Sparks, Md., USA) at 37° C. for 24 hours. Samples of the resulting culture growth are taken from each plate with sterile […] standard loop, dispensed in 1 ml of sterile NS and placed at the same media. Cultures are incubated at anaerobic conditions at 37° C. for another 24 hours, and after that the resulting colony count is performed on each plate. Lethal photosensitization of P. Gingivalis. Serial dilutions of the P. gingivalis culture are prepared from the initial culture preserved on plates using 1:L sterile standard loop (Becton Dickinson and Co, USA) and sterile NS. A Vitek calorimeter (Hach Company, Loveland, Colo., USA) is used to achieve a final concentration of about 5×10^3 CFU/ml from an initial 0.5 standard McFarland suspension of 10^8 CFU/ml. Plates containing CDC anaerobic blood agar (Becton Dickinson and Co, USA) are inoculated with the resulting suspension using sterile 10:L standard loops (Becton Dickinson and Co, USA). […] Plates are also incubated at 37° C. in the tightly closed jars supplied with anaerobic pack kits (BBL GasPak Plus, Becton Dickinson and Co, USA) for 24 hours, and the resulting colony count is performed on each plate.

[2] = tested on: P. gingivalis ATCC 33277; assay: Lethal photosensitization of P. Gingivalis (colony count); type: cell-based
Method: Suitable stain dosages for providing lethal sensitization of oral pathogens are determined in vitro by the following procedure. An objective is to determine the minimum duration of light exposure and minimum agent dilution required to achieve at least a 50% reduction in bacteria counts. Experimental tests are performed on two common pathogens using a continuously working, high intensity, red filtered halogen lamp. Red light from the filtered halogen lamp is transmitted through a flexible light guide to radiate downwardly onto petri dishes containing samples of live bacteria of species Porphyromonas Gingivalis and Prevotella Intermedia using the protocols described below. Bacteria. Prevoltella Intermedia is isolated from patient sample material, identified in the laboratory using standard diagnostic test systems (Remel Inc., Lenexa, Kans., USA) and is maintained by twice-weekly subculture in thioglycollate medium (Becton Dickinson and Co, Sparks, Md., USA). P. gingivalis ATCC 33277 obtained from Remel Inc., is maintained by a twice-weekly subculture on CDC anaerobe blood agar (Becton Dickinson and Co, USA) and in thioglycollate medium (Becton Dickinson and Co, USA). Light Source. […] The light output power density measured at 3 cm distance from the end of the light guide with filter is about 50 milliwatts/cm2. […]

CN(C)c1ccc2nc3ccc(=[N+](C)C)cc-3sc2c1 [methylene blue]
reduction of bacteria without exposure to light ([1]; 0.05% methylene blue alone): insignificant
difference between exposure for 10 and 20 minutes ([1]; either species, any concentration of methylene blue): No statistically significant difference
killing of bacteria without halogen light ([1]; methylene blue 0.001% or 0.025%, without halogen light): nor concentrations of methylene blue of 0.001% or 0.025%, without halogen light, appeared to be effective in killing bacteria
bactericidal effect with red-filtered light ([1]; methylene blue 0.01% or higher, exposure less than 10 minutes, accumulated energy 30 J/cm2, both species): bactericidal effect
Percent of Living Bacteria ([1]; methylene blue 0.01%, exposure to red light 0): 70 +/− 11%
Percent of Living Bacteria ([1]; methylene blue 0.01%, red light 1 min): 73 +/− 6%
Percent of Living Bacteria ([1]; methylene blue 0.01%, red light 5 min): 69 +/− 7%
Percent of Living Bacteria ([1]; methylene blue 0.01%, red light 10 min): 55 +/− 6%
Percent of Living Bacteria ([1]; methylene blue 0.01%, red light 20 min): 51 +/− 4%
Percent of Living Bacteria ([1]; methylene blue 0.025%, exposure to red light 0): 75 +/− 14%
reduction in bacteria counts ([1]; methylene blue 0.025%, light exposure 5 min): Significant reduction in bacteria counts
Percent of Living Bacteria ([1]; methylene blue 0.025%, red light 1 min): 67 +/− 4%
Percent of Living Bacteria ([1]; methylene blue 0.025%, red light 5 min): 47 +/− 6%
Percent of Living Bacteria ([1]; methylene blue 0.025%, red light 10 min): 48 +/− 8%
Percent of Living Bacteria ([1]; methylene blue 0.025%, red light 20 min): 49 +/− 5%
killing with duration of red light ([1]; methylene blue 0.025%, time intervals 5 and 10 min): statistically significant increased killing with duration
reduction in bacteria counts ([1]; methylene blue 0.05% and higher, light exposure 1 min): Significant reduction in bacteria counts
Percent of Living Bacteria ([1]; methylene blue 0.05%, exposure to red light 0): 68 +/− 12%
Percent of Living Bacteria ([1]; methylene blue 0.05%, red light 1 min): 53 +/− 10%
Percent of Living Bacteria ([1]; methylene blue 0.05%, red light 5 min): 32 +/− 7%
Percent of Living Bacteria ([1]; methylene blue 0.05%, red light 10 min): 32 +/− 9%
killing with duration of red light ([1]; methylene blue 0.05%, time intervals 1 min, 5 min and 10 min): statistically significant increased killing with duration
bacterial count reduction ([1]; methylene blue 0.075% and 0.1%, light exposure 1 min, both cultures): statistically significant bacterial count reduction
bactericidal effect without light exposure ([1]; methylene blue 0.075% and 0.1%, no red light): significant bactericidal effect; also recorded: significantly bactericidal
Percent of Living Bacteria ([1]; methylene blue 0.075%, exposure to red light 0): 51 +/− 10%
Percent of Living Bacteria ([1]; methylene blue 0.075%, red light 1 min): 45 +/− 5%
Percent of Living Bacteria ([1]; methylene blue 0.075%, red light 5 min): 26 +/− 5%
Percent of Living Bacteria ([1]; methylene blue 0.075%, red light 10 min): 25 +/− 5%
Percent of Living Bacteria ([1]; methylene blue 0.1%, exposure to red light 0): 35 +/− 9%
Percent of Living Bacteria ([1]; methylene blue 0.1%, red light 1 min): 39 +/− 12%
Percent of Living Bacteria ([1]; methylene blue 0.1%, red light 5 min): 28 +/− 9%
Percent of Living Bacteria ([1]; methylene blue 0.1%, red light 10 min): 24 +/− 4%
bacterial killing without light exposure ([2]; methylene blue 0.01%, no light, P. gingivalis culture): statistically significant bacterial killing
bactericidal effect on P. gingivalis ([2]; methylene blue 0.1%): bactericidal effect

Source: patent US12201848B2, “Device and methods for use in removal of bio-film and treatment of halitosis” (priority 2016, dated 2025)
